Measurements from patent US20240101538A1, “PROTEIN-PROTEIN INTERACTION MODULATORS OF AURORA KINASE A AND THEIR USE IN THE PREVENTION AND/OR TREATMENT OF CANCER” (EBERHARD KARLS UNIVERSITÄT TÜBINGEN, priority 2020, published 2024).

Key:
[1] = biological target: interaction of AURKA with TPX2 (Homo sapiens (Human), UniProt O14965); assay: Co-immunoprecipitation of FLAG-AURKA and western blot for TPX2; type: cell-based, murine; conditions: Co-IP with anti-FLAG, NMP53^−/− cells synchronized with nocodazole
interaction of AURKA with TPX2, sequence (O14965 whole entry, looked up): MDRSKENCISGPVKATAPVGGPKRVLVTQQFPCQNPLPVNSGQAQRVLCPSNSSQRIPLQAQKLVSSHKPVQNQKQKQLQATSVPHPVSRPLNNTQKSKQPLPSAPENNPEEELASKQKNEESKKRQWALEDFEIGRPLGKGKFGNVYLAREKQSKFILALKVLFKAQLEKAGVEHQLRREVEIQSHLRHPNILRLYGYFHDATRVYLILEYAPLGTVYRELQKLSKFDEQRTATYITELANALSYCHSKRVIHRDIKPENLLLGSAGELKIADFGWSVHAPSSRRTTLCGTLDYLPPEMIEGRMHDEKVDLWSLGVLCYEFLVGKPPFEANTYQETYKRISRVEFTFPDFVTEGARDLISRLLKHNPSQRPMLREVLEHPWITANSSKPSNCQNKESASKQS
interaction of AURKA with TPX2, sequence (A2APB8 whole entry partner, looked up): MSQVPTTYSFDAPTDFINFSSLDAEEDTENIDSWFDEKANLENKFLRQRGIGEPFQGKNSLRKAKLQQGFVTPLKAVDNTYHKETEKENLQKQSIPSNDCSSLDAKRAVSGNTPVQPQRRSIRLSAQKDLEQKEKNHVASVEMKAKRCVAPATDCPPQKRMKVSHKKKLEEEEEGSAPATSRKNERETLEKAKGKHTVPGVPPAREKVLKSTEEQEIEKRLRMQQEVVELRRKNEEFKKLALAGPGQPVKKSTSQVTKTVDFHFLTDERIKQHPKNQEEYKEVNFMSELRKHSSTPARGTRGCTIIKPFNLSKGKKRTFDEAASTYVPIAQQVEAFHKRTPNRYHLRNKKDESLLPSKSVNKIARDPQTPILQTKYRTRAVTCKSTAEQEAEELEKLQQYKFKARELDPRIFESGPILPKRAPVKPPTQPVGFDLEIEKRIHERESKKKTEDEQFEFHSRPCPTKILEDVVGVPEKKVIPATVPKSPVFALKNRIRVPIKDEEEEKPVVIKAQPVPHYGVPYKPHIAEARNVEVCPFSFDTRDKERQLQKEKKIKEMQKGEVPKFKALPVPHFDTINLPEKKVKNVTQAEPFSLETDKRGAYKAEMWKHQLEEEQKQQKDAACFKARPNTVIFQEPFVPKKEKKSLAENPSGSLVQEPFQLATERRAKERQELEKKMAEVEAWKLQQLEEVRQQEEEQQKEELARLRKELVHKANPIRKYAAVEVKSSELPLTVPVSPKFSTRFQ
Description: Tumor cells (NMP53^−/− cells) expressing a doxycycline-inducible FLAG-AURKA construct were kept on doxycycline for 24 hours, synchronized with 50 ng/ml nocodazole for 6 hours and treated with two of the developed compounds or DMSO as a control. In particular, the top “AURKA-Ligand” refers to compound 3a [N-(2-fluoro-5-((4-(1-methyl-1H-pyrazole-4-yl)benzyl)amino)phenyl)-3-(furan-2-yl),propanamide], and the bottom “AURKA-Ligand” refers to compound 2c [N-(5-((4-(1H-pyrazole-4-yl)benzyl)amino)-2-fluorophenyl)-3-(furan-2-yl)propanamide]. Co-immunoprecipitations (Co-IP) were carried out with an antibody against FLAG. A DMSO-treated sample without FLAG-AURKA induction served as a control. The AURKA and TPX2 levels of the Co-IP samples and their input were determined by western blotting.
Tumor cells (NMP53/cells) expressing a doxycycline-inducible FLAG-AURKA construct were kept on doxycycline for 24 hours, synchronized with 50 ng/ml nocodazole for 6 hours and treated with two of the developed compounds of this invention (3a and 2c), or DMSO as a control. Then, co-immunoprecipitations (Co-IP) were carried out with an antibody against FLAG. A DMSO-treated sample without FLAG-AURKA induction served as a control. The AURKA and TPX2 levels of the Co-IP samples and their input were determined by western blotting.

NMP53^−/− cells = assay: Immunofluorescence staining (α-tubulin, DAPI) of normal and abnormal spindles; type: cell-based, murine; conditions: different treatment times
Description: The AURKA compounds of this invention trigger the formation of abnormal (multipolar and monopolar) spindles a few minutes after application. A. Representative images of immunofluorescence stainings with antibodies against α-tubulin (light grey) and DAPI (surrounded by a dashed white line) of a tumor cell line (NMP53^−/− cells) treated for 24 hours with compound 3a [N-(2-fluoro-5-((4-(1-methyl-1H-pyrazole-4-yl)benzyl)amino)phenyl)-3-(furan-2-yl)-propanamide] or DMSO as a control. B. Quantification of normal and abnormal spindles of immunofluorescence staining with antibodies against α-tubulin and DAPI of a tumor cell line (NMP53^−/− cells) after different treatment times with compound 3a according to this invention or DMSO as a control.
The AURKA compounds of this invention trigger the formation of abnormal (e.g. multipolar and/or monopolar) spindles in tumor cell lines (NMP53^−/− cells) (FIG. 8).

AURKA = AURKA (Homo sapiens (Human), UniProt O14965); assay: Binding to AURKA
AURKA, sequence (O14965 whole entry): as the sequence (O14965 whole entry, looked up) above

## Cn1cc(-c2ccc(CNc3ccc(F)c(NC(=O)CCc4ccco4)c3)cc2)cn1 [Compound 3a, N-(2-fluoro-5-((4-(1-methyl-1H-pyrazole-4-yl)benzyl)amino)phenyl)-3-(furan-2-yl)propanamide]
[1]
  interaction of AURKA with TPX2: largely enhance
NMP53^−/− cells
  formation of abnormal spindles: induce the formation of abnormal spindles within a few minutes

## O=C(CCc1ccco1)Nc1cc(NCc2ccc(-c3cn[nH]c3)cc2)ccc1F [Compound 2c, N-(5-((4-(1H-pyrazole-4-yl)benzyl)amino)-2-fluorophenyl)-3-(furan-2-yl)propanamide]
[1]
  interaction of AURKA with TPX2: largely enhance
AURKA
  binding to AURKA: strong binding
